From PMC7901646, “Pyrrolo[2′,3′:3,4]cyclohepta[1,2-d][1,2]oxazoles, a New Class of Antimitotic Agents Active against Multiple Malignant Cell Types” (Journal of Medicinal Chemistry, 2020)

What was measured:
Type in all cases: cell-based
SF-268 = assay: NCI-60 screen; conditions: Homo sapiens, CNS Cancer
Method: (§1) All the synthesized compounds 51–76 were tested at a 10^–5 M concentration for their antitumor activity on the full NCI-60 panel comprising cancer cell lines derived from nine human cancer cell types (leukemia, non-small-cell lung, colon, central nervous system, melanoma, ovarian, renal, prostate, and breast).[50]

NCI/ADR-RES = assay: NCI-60 screen; conditions: Homo sapiens, Ovarian Cancer
Method: as §1

IGROV1 = assay: NCI-60 screen; conditions: Homo sapiens, IGROV-1; Ovarian Cancer
Method: as §1

COLO 205 = assay: NCI-60 screen; conditions: Homo sapiens, Colon Cancer
Method: as §1

TK-10 = assay: NCI-60 screen; conditions: Homo sapiens, Renal Cancer
Method: as §1

HCT-116 = assay: NCI-60 screen; conditions: Homo sapiens, Colon Cancer
Method: as §1

K-562 = assay: NCI-60 screen; conditions: Homo sapiens, K562; Leukemia
Method: as §1

PC-3 = assay: NCI-60 screen; conditions: Homo sapiens, Prostate Cancer
Method: as §1

MOLT-4 = assay: NCI-60 screen; conditions: Homo sapiens, Leukemia
Method: as §1

SR = assay: NCI-60 screen; conditions: Homo sapiens, Leukemia
Method: as §1

CCRF-CEM = assay: NCI-60 screen; conditions: Homo sapiens, Leukemia
Method: as §1

MCF7 = assay: NCI-60 screen; conditions: Homo sapiens, Breast Cancer
Method: as §1

HCT-15 = assay: NCI-60 screen; conditions: Homo sapiens, Colon Cancer
Method: as §1

DU-145 = assay: NCI-60 screen; conditions: Homo sapiens, Prostate Cancer
Method: as §1

SK-MEL-5 = assay: NCI-60 screen; conditions: Homo sapiens, Melanoma
Method: as §1

NCI-H460 = assay: NCI-60 screen; conditions: Homo sapiens, Non-Small-Cell Lung Cancer
Method: as §1

NCI-H226 = assay: NCI-60 screen; conditions: Homo sapiens, Non-Small-Cell Lung Cancer
Method: as §1

HL-60(TB) = assay: NCI-60 screen; conditions: Homo sapiens, Leukemia
Method: as §1

SW-620 = assay: NCI-60 screen; conditions: Homo sapiens, Colon Cancer
Method: as §1

ACHN = assay: NCI-60 screen; conditions: Homo sapiens, Renal Cancer
Method: as §1

CAKI-1 = assay: NCI-60 screen; conditions: Homo sapiens, Renal Cancer
Method: as §1

MDA-MB-231/ATCC = assay: NCI-60 screen; conditions: Homo sapiens, Breast Cancer
Method: as §1

M14 = assay: NCI-60 screen; conditions: Homo sapiens, Melanoma
Method: as §1

SF-295 = assay: NCI-60 screen; conditions: Homo sapiens, CNS Cancer
Method: as §1

A498 = assay: NCI-60 screen; conditions: Homo sapiens, Renal Cancer
Method: as §1

HT29 = assay: NCI-60 screen; conditions: Homo sapiens, HT-29; Colon Cancer
Method: as §1

MDA-MB-435 = assay: NCI-60 screen; conditions: Homo sapiens, Melanoma
Method: as §1

SNB-19 = assay: NCI-60 screen; conditions: Homo sapiens, CNS Cancer
Method: as §1

RPMI-8226 = assay: NCI-60 screen; conditions: Homo sapiens, Leukemia
Method: as §1

SK-OV-3 = assay: NCI-60 screen; conditions: Homo sapiens, Ovarian Cancer
Method: as §1

UACC-62 = assay: NCI-60 screen; conditions: Homo sapiens, Melanoma
Method: as §1

[1] = tested on: VL51 idelalisib-resistant; assay: MTT cell proliferation, lymphoma; conditions: Homo sapiens, 72 h, of untreated cells, read-out: Proliferating cells (%)
Method: (§2) All compounds were further tested at the concentration of 1 μM on four cell lines derived from distinct lymphoma histotypes, plus two with secondary resistance to the PI3Kδ inhibitor idelalisib[51] or to the BTK inhibitor ibrutinib.[52] […] For comparison, the same experiments were conducted using compound 3, but the response to it was minimal, and thus it was not considered further.
(§3) Established human cell lines derived from germinal center B-cell (GCB) (SU-DHL-10), activated B-cell (ABC) (HBL1) diffuse large B-cell lymphoma (DLBCL), mantle cell lymphoma (MCL) (MINO), splenic marginal zone lymphoma (SMZL) (parental VL51, VL51 idelalisib resistant clone, VL51 ibrutinib resistant clone) were cultured in culture RPMI-1640 media supplemented with fetal bovine serum (10%), penicillin–streptomycin–neomycin (∼5,000 units of penicillin, 5 mg of streptomycinm and 10 mg of neomycin/mL, Sigma), and L-glutamine (1%). Vincristine sulfate was purchased from Sigma-Aldrich. Cell line identities were confirmed by CellCheck test (IDEXX, BioResearch, Ludwigsburg, Germany). All compounds were dissolved in dimethyl sulfoxide to obtain a stock concentration of 10 mM.
(§4) The antiproliferative activity of all compounds was assessed by using the 3-(4.5-dimethylthiazolyl-2)-2,5-diphenyltetrazolium bromide (MTT) test. Cells were seeded in 96-well plates (nontissue culture treated) at a density of 1 × 10^5 cells/mL and treated with a single concentration of 1 μM for 72 h. […] In this case, cells were treated in triplicate with serially diluted compounds in the appropriate tissue culture medium at a range of 40–10 000 nM. Cells were incubated for 72 h at 37 °C, 5% CO2. Wells containing medium only were included on each plate and served as blanks for absorbance readings. MTT (Sigma, Buchs, Switzerland) was prepared as a 5 mg/mL stock solution in phosphate buffered saline (PBS) and filter-sterilized. MTT solution (22 μL) was added to each well, and tissue culture plates were incubated at 37 °C for 4 h. Cells were then lysed with 25% sodium dodecyl sulfate lysis buffer, and absorbance was read at 570 nm using a Beckman Coulter-AD340 plate reader.

VL51 ibrutinib-resistant = assay: MTT cell proliferation, lymphoma; conditions: Homo sapiens, 72 h, of untreated cells, read-out: Proliferating cells (%)
Method: as §2, §3, §4

OVCAR-3 = assay: NCI-60 screen; conditions: Homo sapiens, Ovarian Cancer
Text: (§5) on the full NCI-60 panel comprising cancer cell lines derived from nine human cancer cell types (leukemia, non-small-cell lung, colon, central nervous system, melanoma, ovarian, renal, prostate, and breast).[50]

LOX IMVI = assay: NCI-60 screen; conditions: Homo sapiens, Melanoma
Text: as §5

KM12 = assay: NCI-60 screen; conditions: Homo sapiens, Colon Cancer
Text: as §5

NCI-H522 = assay: NCI-60 screen; conditions: Homo sapiens, Non-Small-Cell Lung Cancer
Text: as §5

Row | SMILES | GI50 (SF-268) | GI50 (NCI/ADR-RES) | GI50 (IGROV1) | GI50 (COLO 205) | GI50 (TK-10) | GI50 (HCT-116) | GI50 (K-562) | GI50 (PC-3) | GI50 (MOLT-4) | GI50 (SR) | GI50 (CCRF-CEM) | GI50 (MCF7) | GI50 (HCT-15) | GI50 (DU-145) | GI50 (SK-MEL-5) | GI50 (NCI-H460) | GI50 (NCI-H226) | GI50 (HL-60(TB)) | GI50 (SW-620) | GI50 (ACHN) | other results
1 | CCOC(=O)c1cc2c(n1Cc1ccccc1OC)-c1oncc1CCC2 [Compound 62, Ethyl 9-(2-Methoxybenzyl)-4,5,6,9-tetrahydropyrrolo[2′,3′:3,4]cyclohepta[1,2-d][1,2]oxazole-8-carboxylate] | 46200 nM | 1360 nM | 1990 nM | 870 nM | 67800 nM | 3790 nM | 1590 nM | 2480 nM | 5680 nM | 430 nM | 2870 nM | 710 nM | 2240 nM | 5270 nM | 2610 nM | 3880 nM | > 100000 nM | 3040 nM | 2020 nM | 16600 nM | GI50 (CAKI-1): 3510 nM; GI50 (MDA-MB-231/ATCC): 9120 nM; GI50 (M14): 3670 nM; GI50 (SF-295): 1380 nM; GI50 (A498): 3460 nM; GI50 (HT29): 910 nM; GI50 (MDA-MB-435): 350 nM; GI50 (SNB-19): 64700 nM; GI50 (RPMI-8226): 4110 nM; GI50 (SK-OV-3): 2700 nM; GI50 (UACC-62): 3370 nM; activity at 1 µM [1]: 63.6%; activity at 1 µM (VL51 ibrutinib-resistant): 80.3%; GI50 (OVCAR-3): 870 nM; GI50 (LOX IMVI): 7640 nM; GI50 (KM12): 2100 nM; GI50 (NCI-H522): 350 nM
2 | CCOC(=O)c1cc2c(n1Cc1cccc(OC)c1)-c1oncc1CCC2 [Compound 63, Ethyl 9-(3-Methoxybenzyl)-4,5,6,9-tetrahydropyrrolo[2′,3′:3,4]cyclohepta[1,2-d][1,2]oxazole-8-carboxylate] | 6710 nM | 430 nM | 1160 nM | 580 nM | 11200 nM | 470 nM | 390 nM | 2350 nM | 2300 nM | 280 nM | 2170 nM | 370 nM | 450 nM | 2180 nM | 750 nM | 3530 nM | 21000 nM | 530 nM | 480 nM | 3400 nM | GI50 (CAKI-1): 2310 nM; GI50 (MDA-MB-231/ATCC): 1840 nM; GI50 (M14): 540 nM; GI50 (SF-295): 620 nM; GI50 (A498): 440 nM; GI50 (HT29): 360 nM; GI50 (MDA-MB-435): 150 nM; GI50 (SNB-19): 8230 nM; GI50 (RPMI-8226): 1890 nM; GI50 (SK-OV-3): 2830 nM; GI50 (UACC-62): 510 nM; activity at 1 µM [1]: 62.3%; activity at 1 µM (VL51 ibrutinib-resistant): 64.9%; GI50 (OVCAR-3): 300 nM; GI50 (LOX IMVI): 1750 nM; GI50 (KM12): 460 nM; GI50 (NCI-H522): 230 nM
3 | CCOC(=O)c1cc2c(n1Cc1cc(OC)cc(OC)c1)-c1oncc1CCC2 [Compound 66, Ethyl 9-(3,5-Dimethoxybenzyl)-4,5,6,9-tetrahydropyrrolo[2′,3′:3,4]cyclohepta[1,2-d][1,2]oxazole-8-carboxylate] | 50 nM | 30 nM | 60 nM | 30 nM | > 100000 nM | 40 nM | 40 nM | 40 nM | 260 nM | 30 nM | 50 nM | 30 nM | 40 nM | 40 nM | 40 nM | 40 nM | 7980 nM | 30 nM | 40 nM | 60 nM | GI50 (CAKI-1): 50 nM; GI50 (MDA-MB-231/ATCC): 240 nM; GI50 (M14): 50 nM; GI50 (SF-295): 30 nM; GI50 (A498): 20 nM; GI50 (HT29): 30 nM; GI50 (MDA-MB-435): 10 nM; GI50 (SNB-19): 150 nM; GI50 (RPMI-8226): 50 nM; GI50 (SK-OV-3): 50 nM; GI50 (UACC-62): 70 nM; activity at 1 µM [1]: 34.3%; activity at 1 µM (VL51 ibrutinib-resistant): 40.5%; GI50 (OVCAR-3): 20 nM; GI50 (LOX IMVI): 50 nM; GI50 (KM12): 30 nM; GI50 (NCI-H522): 20 nM
